Measured values as given in patent US12077503B2, “Substituted cyclic amides and their use as herbicides” (FMC CORPORATION, priority 2015, dated 2024).

What was measured:
Type in all cases: in vivo
Kochia (Kochia scoparia) [1] = assay: Test A preemergence; settings: Bassia scoparia, pre-emergence, 240 h, Preemergence
How it was run: (§1)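 Visual injury scores from 0, no effect, to 100, complete control, were assigned versus untreated controls roughly 10 d after treatment in the greenhouse. Test chemicals, formulated with surfactant in a non-phytotoxic solvent, were applied to planted seeds as a preemergence soil spray or postemergence to one- to two-leaf plants 2 to 10 cm tall, in loam–sand soil.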

[2] = test system: barnyardgrass (Echinochloa crus-galli); assay: Test A preemergence; settings: Echinochloa crus-galli, pre-emergence, 240 h, Preemergence
How it was run: as §1

[3] = test system: giant foxtail (Setaria faberii); assay: Test A preemergence; settings: Setaria faberi, pre-emergence, 240 h, Preemergence
How it was run: as §1

[4] = test system: pigweed (Amaranthus retroflexus); assay: Test A preemergence; settings: Amaranthus retroflexus, pre-emergence, 240 h, Preemergence
[5] = test system: ragweed (common ragweed, Ambrosia elatior); assay: Test A preemergence; settings: Ambrosia artemisiifolia, pre-emergence, 240 h, Preemergence
How it was run: as §1

[6] = test system: ryegrass, Italian (Italian ryegrass, Lolium multiflorum); assay: Test A preemergence; settings: Lolium multiflorum, pre-emergence, 240 h, Preemergence
How it was run: as §1

[7] = test system: Galium (catchweed bedstraw, Galium aparine); assay: Test A postemergence; settings: Galium, post-emergence, 240 h, Postemergence, read-out: Plant response rating, Galium
How it was run: as §1

Kochia (Kochia scoparia) [8] = assay: Test A postemergence; settings: Bassia scoparia, post-emergence, 240 h, Postemergence, read-out: Plant response rating, Kochia
How it was run: as §1

[9] = test system: barnyardgrass (Echinochloa crus-galli); assay: Test A postemergence; settings: Echinochloa crus-galli, post-emergence, 240 h, Postemergence, read-out: Plant response rating, Barnyardgrass
How it was run: as §1

[10] = test system: blackgrass (Alopecurus myosuroides); assay: Test A postemergence; settings: Alopecurus myosuroides, post-emergence, 240 h, Postemergence, read-out: Plant response rating, Blackgrass
How it was run: as §1

corn (Zea mays) = assay: Test A postemergence; settings: Zea mays, post-emergence, 240 h, Postemergence
How it was run: as §1

[11] = test system: giant foxtail (Setaria faberii); assay: Test A postemergence; settings: Setaria faberi, post-emergence, 240 h, Postemergence, read-out: Plant response rating, Foxtail, Giant
How it was run: as §1

[12] = test system: pigweed (Amaranthus retroflexus); assay: Test A postemergence; settings: Amaranthus retroflexus, post-emergence, 240 h, Postemergence, read-out: Plant response rating, Pigweed
How it was run: as §1

[13] = test system: ragweed (common ragweed, Ambrosia elatior); assay: Test A postemergence; settings: Ambrosia artemisiifolia, post-emergence, 240 h, Postemergence, read-out: Plant response rating, Ragweed
How it was run: as §1

[14] = test system: ryegrass, Italian (Italian ryegrass, Lolium multiflorum); assay: Test A postemergence; settings: Lolium multiflorum, post-emergence, 240 h, Postemergence, read-out: Plant response rating, Ryegrass, Italian
How it was run: as §1

[15] = test system: wheat (Triticum aestivum); assay: Test A postemergence; settings: Triticum aestivum, post-emergence, 240 h, Postemergence, read-out: Plant response rating, Wheat
How it was run: as §1

[16] = test system: barnyardgrass (Echinochloa crus-galli); assay: Test B flooded paddy test; settings: Echinochloa crus-galli, Flood, 250 g ai/ha; scale of 0 to 100 where 0 is no effect and 100 is complete control; read-out: Barnyardgrass plant response rating
How it was run: (§2)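 Percent control, visually estimated after 13–15 d in the greenhouse on a 0–100 basis, compares treated pots with untreated ones; compound was put into paddy water 3 cm above the soil when plants had two leaves.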

[17] = test system: ducksalad (Heteranthera limosa); assay: Test B flooded paddy test; settings: Heteranthera limosa, Flood, 250 g ai/ha; scale of 0 to 100 where 0 is no effect and 100 is complete control; read-out: Ducksalad plant response rating
How it was run: as §2

rice (Oryra sativa) = assay: Test B flooded paddy test; settings: Oryza sativa, Flood, 250 g ai/ha; scale of 0 to 100 where 0 is no effect and 100 is complete control; read-out: Rice plant response rating
How it was run: as §2

[18] = test system: sedge, umbrella (small-flower umbrella sedge, Cyperus difformis); assay: Test B flooded paddy test; settings: Cyperus difformis, 250 g ai/ha, Flood; 0 to 100 scale where 0 is no effect and 100 is complete control; read-out: Sedge, Umbrella plant response rating
How it was run: as §2

[19] = 125 g ai/ha, visual injury after approximately 10 d, 0 to 100 scale where 0 is no effect and 100 is complete control
[20] = 31 g ai/ha, visual injury after approx. 10 d, 0 to 100 scale, 0 no effect, 100 complete control

O=C(Nc1cccc(F)c1F)[C@H]1C(=O)N(OCc2ccccc2)CC[C@@H]1c1cccc(Cl)c1 [Compound 997]
0%: pest or weed control at 125 g/ha (Kochia (Kochia scoparia) [1]; 125 g ai/ha, visual injury rating after approximately 10 d, read-out: Kochia plant response rating (0 to 100 scale, 0 is no effect, 100 is complete control)) | pest or weed control at 31 g/ha (Kochia (Kochia scoparia) [1]; 31 g ai/ha, 0 to 100 scale (0 no effect, 100 complete control), read-out: Plant response rating, Kochia) | pest or weed control at 125 g/ha ([2]; 125 g ai/ha, visual injury rating after approximately 10 d, read-out: Barnyardgrass plant response rating (0 to 100 scale, 0 is no effect, 100 is complete control)) | pest or weed control at 31 g/ha ([2]; 31 g ai/ha, 0 to 100 scale (0 no effect, 100 complete control), read-out: Plant response rating, Barnyardgrass) | pest or weed control at 125 g/ha ([3]; 125 g ai/ha, visual injury rating after approximately 10 d, read-out: Foxtail, Giant plant response rating (0 to 100 scale, 0 is no effect, 100 is complete control)) | pest or weed control at 31 g/ha ([3]; 31 g ai/ha, 0 to 100 scale (0 no effect, 100 complete control), read-out: Plant response rating, Foxtail, Giant) | pest or weed control at 125 g/ha ([4]; 125 g ai/ha, visual injury rating after approximately 10 d, read-out: Pigweed plant response rating (0 to 100 scale, 0 is no effect, 100 is complete control)) | pest or weed control at 31 g/ha ([4]; 31 g ai/ha, 0 to 100 scale (0 no effect, 100 complete control), read-out: Plant response rating, Pigweed) | pest or weed control at 125 g/ha ([5]; 125 g ai/ha, visual injury rating after approximately 10 d, read-out: Ragweed plant response rating (0 to 100 scale, 0 is no effect, 100 is complete control)) | pest or weed control at 31 g/ha ([5]; 31 g ai/ha, 0 to 100 scale (0 no effect, 100 complete control), read-out: Plant response rating, Ragweed) | pest or weed control at 125 g/ha ([6]; 125 g ai/ha, visual injury rating after approximately 10 d, read-out: Ryegrass, Italian plant response rating (0 to 100 scale, 0 is no effect, 100 is complete control)) | pest or weed control at 31 g/ha ([6]; 31 g ai/ha, 0 to 100 scale (0 no effect, 100 complete control), read-out: Plant response rating, Ryegrass, Italian) | pest or weed control at 125 g/ha [7, 19] | pest or weed control at 31 g/ha [7, 20] | pest or weed control at 125 g/ha (Kochia (Kochia scoparia) [8]; [19]) | pest or weed control at 31 g/ha (Kochia (Kochia scoparia) [8]; [20]) | pest or weed control at 125 g/ha [9, 19] | pest or weed control at 31 g/ha [9, 20] | pest or weed control at 125 g/ha [10, 19] | pest or weed control at 31 g/ha [10, 20] | Corn plant response rating (crop injury, 0 = no effect, 100 = complete kill) at 125 g/ha (corn (Zea mays); [19]) | Corn plant response rating (crop injury, 0 = no effect, 100 = complete kill) at 31 g/ha (corn (Zea mays); [20]) | pest or weed control at 125 g/ha [11, 19] | pest or weed control at 31 g/ha [11, 20] | pest or weed control at 125 g/ha [12, 19] | pest or weed control at 31 g/ha [12, 20] | pest or weed control at 125 g/ha [13, 19] | pest or weed control at 31 g/ha [13, 20] | pest or weed control at 125 g/ha [14, 19] | pest or weed control at 31 g/ha [14, 20] | plant injury at 125 g/ha [15, 19] | plant injury at 31 g/ha [15, 20] | pest or weed control at 250 g/ha [16] | pest or weed control at 250 g/ha [17] | pest or weed control at 250 g/ha (rice (Oryra sativa)) | pest or weed control at 250 g/ha [18]
